From US10696651B2, “Heterocyclic compound” (Takeda Pharmaceutical Company Limited, priority 2016, dated 2020)
Structures can show the parent of a compound that is named as a salt. Where two headings read alike, the source gives them in different places. Each block holds one molecule with its values, some of them ahead of it.

Legend:
[1] = molecular target: T1, human GCN2 full-length protein (Homo sapiens, UniProt Q9P2K8); experiment: GCN2 enzyme inhibition assay (LanthaScreen TR-FRET); type: biochemical; conditions: GCN2 enzyme inhibitory activity at compound concentration of 3 μM; for inhibitory rate: 3 µM; for inhibition at 3 µM: read-out: inhibitory rate
T1 construct: purchased Carna Biosciences, Inc
T1 sequence (Q9P2K8 whole entry): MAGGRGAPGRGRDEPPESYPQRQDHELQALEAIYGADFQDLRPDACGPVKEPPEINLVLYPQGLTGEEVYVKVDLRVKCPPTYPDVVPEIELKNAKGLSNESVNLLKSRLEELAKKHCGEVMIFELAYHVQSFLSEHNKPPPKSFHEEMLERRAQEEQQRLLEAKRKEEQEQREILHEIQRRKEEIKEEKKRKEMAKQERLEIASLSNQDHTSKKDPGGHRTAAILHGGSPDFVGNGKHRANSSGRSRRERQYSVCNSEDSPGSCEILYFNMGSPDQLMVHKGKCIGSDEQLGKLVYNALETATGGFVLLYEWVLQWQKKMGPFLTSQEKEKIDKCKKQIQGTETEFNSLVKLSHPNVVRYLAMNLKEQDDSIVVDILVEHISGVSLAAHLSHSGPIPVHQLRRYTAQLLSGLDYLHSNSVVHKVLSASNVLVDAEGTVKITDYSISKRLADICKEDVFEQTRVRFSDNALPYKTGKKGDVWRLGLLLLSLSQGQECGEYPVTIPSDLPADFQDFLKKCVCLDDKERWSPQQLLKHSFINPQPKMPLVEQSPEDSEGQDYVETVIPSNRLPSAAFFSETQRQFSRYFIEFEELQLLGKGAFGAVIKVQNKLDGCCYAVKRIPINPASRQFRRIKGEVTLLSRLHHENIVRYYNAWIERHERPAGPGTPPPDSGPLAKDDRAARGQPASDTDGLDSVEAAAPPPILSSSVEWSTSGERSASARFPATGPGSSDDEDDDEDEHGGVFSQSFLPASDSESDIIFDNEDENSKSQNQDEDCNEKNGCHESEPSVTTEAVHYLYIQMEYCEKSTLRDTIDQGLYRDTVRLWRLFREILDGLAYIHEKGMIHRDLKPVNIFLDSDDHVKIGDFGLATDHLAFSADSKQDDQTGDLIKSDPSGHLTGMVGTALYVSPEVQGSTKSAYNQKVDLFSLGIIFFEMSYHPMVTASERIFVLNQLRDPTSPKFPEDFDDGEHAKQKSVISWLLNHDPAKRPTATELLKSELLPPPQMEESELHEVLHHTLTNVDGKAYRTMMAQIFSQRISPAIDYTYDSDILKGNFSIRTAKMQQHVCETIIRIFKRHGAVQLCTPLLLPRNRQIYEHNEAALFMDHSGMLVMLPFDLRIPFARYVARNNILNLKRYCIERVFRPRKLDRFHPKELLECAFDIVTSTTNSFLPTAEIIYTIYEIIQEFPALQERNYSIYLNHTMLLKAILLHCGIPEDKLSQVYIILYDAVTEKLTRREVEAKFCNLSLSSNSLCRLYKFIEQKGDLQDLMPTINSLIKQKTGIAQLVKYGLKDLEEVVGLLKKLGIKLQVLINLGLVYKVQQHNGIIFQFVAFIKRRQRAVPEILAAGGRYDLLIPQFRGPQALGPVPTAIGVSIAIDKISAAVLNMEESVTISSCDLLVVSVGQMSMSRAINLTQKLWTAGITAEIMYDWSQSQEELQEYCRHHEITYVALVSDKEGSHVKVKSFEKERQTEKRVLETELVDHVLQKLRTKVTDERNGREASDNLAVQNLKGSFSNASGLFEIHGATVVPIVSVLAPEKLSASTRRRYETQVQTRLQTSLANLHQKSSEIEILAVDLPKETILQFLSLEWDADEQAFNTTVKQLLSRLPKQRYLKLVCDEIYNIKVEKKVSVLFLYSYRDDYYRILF
How it was run: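 Full-length human GCN2 was preincubated with compound for 1 hr at room temperature, then reacted for 1 hr with substrate and ATP added from a 570 μM ATP / 390 nM substrate solution (stock concentrations). Phosphorylation was detected by TR-FRET with a terbium-labelled anti-eIF2alpha antibody after 1 hr, with enzyme-free wells as control.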

[2] = system: osteosarcoma cell line U-2-OS; experiment: In vitro cell proliferation inhibition assay (CellTiter-Glo, low amino acid media); type: cell-based; conditions: McCoy's 5A low amino acid media; for inhibitory rate: 72 hr; for inhibition at 0.1 µM: Homo sapiens, U2OS, 72 h, cell proliferation inhibitory rate
How it was run: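 Cells seeded at 1000 per well in McCoy's 5A low amino acid medium (25% amino acid content), then exposed to compound for 72 h at 37° C., 5% CO2. ATP measured by CellTiter-Glo luminescence. Inhibition (%) at 100 nM calculated relative to pre-treatment and untreated control wells.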

[3] = system: ATF4 expression in CCRF-CEM tumor; experiment: In vivo ATF4 expression suppression assay (Western blot of CCRF-CEM xenograft tumor) in the presence of L-asparaginase; conditions: compound 10 mg/kg oral 8 hr before tumor removal, L-asparaginase 1000 U/kg s.c. 32 hr and 8 hr before, CCRF-CEM xenograft in SCID mouse
Text: One million human acute lymphoblastic leukemia cell lines CCRF-CEM obtained from ATCC (American Type Culture Collection) were suspended in Matrigel solution (Corning) and implanted subcutaneously into 6-week-old female SCID mouse (CLEA Japan, Inc.) by injection. The mice in which the tumor engrafted to a size of about 200-1000 mm^3 tumor volume after transplantation were selected and 3 mice per group were used for the experiment. L-asparaginase (Kyowa Hakko Kogyo Co., Ltd.) was subcutaneously administered at a dose of 1000 U/kg 32 hr and 8 hr before tumor removal. A 0.5% methylcellulose suspension of the compound was orally administered at a dose of 10 mg/kg 8 hr before tumor removal. After tumor removal, protein was extracted using Lysing Matrix I tube (MP Biomedicals) containing a protein extract (10% glycerol, 1% sodium dodecyl sulfate, 62.5 mM Tris-HCl [pH 7.5], protease and phosphatase inhibitors [Complete mini and PhosSTOP, Sigma-Aldrich Co. LLC.]) and subjected to Western blot.
Protein extract solution was subjected to protein quantification with BCA Protein Assay Kit (Thermo Scientific), electrophoresed on 7.5-15% SDS-PAGE gel (DRC), and protein in the gel was transferred to PVDF membrane. The membrane was blocked with Starting Block T20 (PBS) Blocking Buffer (Thermo Scientific). […] Thereafter, chemiluminescence was performed using ImmunoStar LD (Wako Pure Chemical Industries, Ltd.), and luminescence intensity was measured by LAS-3000 image analyzer (Fuji Film Co., Ltd.). Furthermore, the expression level of ATF4 was digitized by quantifying the luminescence intensity using Multi Gauge Ver. […]
Based on the ATF4 expression level of the control group orally administered with 0.5% methylcellulose suspension free of Example compound and the treatment group orally administered with Example compound suspension, the ATF4 expression inhibition ratio (%) of the test compound at a compound dose 10 mg/kg was calculated by the following formula and the results thereof are shown in Table 6. […]

[4] = system: human acute lymphoblastic leukemia cells CCRF-CEM; experiment: In vivo tumor proliferation inhibitory assay with combined use of asparaginase (CCRF-CEM xenograft); conditions: CCRF-CEM xenograft in SCID mouse
Text: One million human acute lymphoblastic leukemia cells CCRF-CEM obtained from ATCC (American Type Culture Collection) were suspended in Matrigel solution (Corning) and implanted subcutaneously into 6-week-old female SCID mouse (CLEA Japan, Inc.) by injection. The mice in which the tumor engrafted to a size of about 200 mm^3 tumor volume after transplantation were selected and 5 mice per group were used for the experiment. A 0.5% methylcellulose suspension of the compound was orally administered twice per day for 9 days. Each compound was administered twice per day and the dose was 10 mg/kg for Example 14 and Example 7, and 6 mg/kg for Example 4. L-asparaginase (Kyowa Hakko Kogyo Co., Ltd.) was subcutaneously administered once per day at a dose of 1000 U/kg. Tumor diameter was measured one day before start of the administration and day 9 of the administration, and the tumor volume was calculated by the formula 1. tumor volume=major axis×minor axis×minor axis×(½) Formula 1
Tumor proliferation inhibitory rate (%) was calculated by the formula 2. tumor proliferation inhibitory rate (%)=(1−(T9−T0)/(C9−C0))×100 Formula 2 T9: average tumor volume of test drug administration group on day 9 of administration, T0: average tumor volume of test drug administration group one day before start of administration, C9: average tumor volume of control group on day 9 of administration, C0: average tumor volume of control group one day before start of administration

Structure (SMILES): O=S(=O)(Nc1ccc(F)c(C#Cc2cnc3[nH]ncc3c2)c1F)c1cc(Cl)ccc1Cl [Example 14, 2,5-dichloro-N-(2,4-difluoro-3-(1H-pyrazolo[3,4-b]pyridin-5-ylethynyl)phenyl)benzenesulfonamide]
- inhibitory rate ([1]; Table 3-1): 98%
- inhibitory rate ([2]; Table 4-1): 42%
- in vivo ATF4 expression inhibition ratio (%) [3]: 63%
- in vivo tumor proliferation inhibitory rate (%), GCN2 inhibitor ([4]; GCN2 inhibitor alone, 10 mg/kg oral twice per day for 9 days): 1%
- in vivo tumor proliferation inhibitory rate (%), combined use ([4]; compound 10 mg/kg oral twice per day for 9 days combined with L-asparaginase 1000 U/kg s.c. once per day): 64%

Structure (SMILES): CNc1ncc(C#Cc2c(F)ccc(NS(=O)(=O)c3cc(Cl)ccc3Cl)c2F)cn1 [Example 37, 2,5-dichloro-N-(2,4-difluoro-3-((2-(methylamino)pyrimidin-5-yl)ethynyl)phenyl)benzenesulfonamide TFA Salt]
- inhibition at 3 µM ([1]; Table 3-1): 98%
- inhibition at 0.1 µM ([2]; Table 4-1): 45%

Structure (SMILES): COc1c(Cl)cc(Cl)cc1S(=O)(=O)Nc1ccc(F)c(C#Cc2cnc3[nH]ncc3c2)c1F [Example 33, 3,5-dichloro-N-(2,4-difluoro-3-(1H-pyrazolo[3,4-b]pyridin-5-ylethynyl)phenyl)-2-methoxybenzenesulfonamide]
- inhibition at 3 µM ([1]; Table 3-1): 98%
- inhibition at 0.1 µM ([2]; Table 4-1): 40%

Structure (SMILES): Cc1ccc(Cl)cc1S(=O)(=O)Nc1ccc(F)c(C#Cc2cnc3[nH]ncc3c2)c1F [Example 15, 5-chloro-N-(2,4-difluoro-3-(1H-pyrazolo[3,4-b]pyridin-5-ylethynyl)phenyl)-2-methylbenzenesulfonamide]
- inhibition at 3 µM ([1]; Table 3-1): 100%
- inhibition at 0.1 µM ([2]; Table 4-1): 75%

Further lines, with some results ahead:

- inhibitory rate ([1]; Table 3-2): 100%
Structure (SMILES): C[C@H](CO)Nc1ncc(C#Cc2c(F)ccc(NS(=O)(=O)c3cc(Cl)cc4c3OCC4O)c2F)cn1 (stereo partly drawn) [Example 186, 5-chloro-N-(2,4-difluoro-3-((2-(((2R)-1-hydroxypropan-2-yl)amino)pyrimidin-5-yl)ethynyl)phenyl)-3-hydroxy-2,3-dihydro-1-benzofuran-7-sulfonamide]
- inhibitory rate ([2]; Table 4-2): 43%

- inhibition at 3 µM ([1]; Table 3-2): 100%
Structure (SMILES): CNc1ncc(Cl)cc1S(=O)(=O)Nc1ccc(F)c(C#Cc2cnc(N)nc2)c1F [Example 171, N-(3-((2-aminopyrimidin-5-yl)ethynyl)-2,4-difluorophenyl)-5-chloro-2-(methylamino)pyridine-3-sulfonamide]
- inhibition at 0.1 µM ([2]; Table 4-2): 82%

- inhibition at 3 µM ([1]; Table 3-1): 99%
Structure (SMILES): O=S(=O)(Nc1ccc(F)c(C#Cc2cnc3[nH]ncc3c2)c1F)c1cccc(Cl)c1Cl [Example 38, 2,3-dichloro-N-(2,4-difluoro-3-(1H-pyrazolo[3,4-b]pyridin-5-ylethynyl)phenyl)benzenesulfonamide TFA Salt]
- inhibition at 0.1 µM ([2]; Table 4-1): 22%
